Assays:
[1] = tested on: restraint stress-induced defecation; assay: Restraint stress-induced defecation test; type: in vivo; conditions: male Wistar rats
Procedure: For the experiment, 10 week-old male Wistar rats (SLC) were used. Compound A (0.3, 3, 10 and 30 mg/kg) or a vehicle (control group, 0.5% methylcellulose) was administered orally with a dose of 4 ml/kg, and after 15 minutes, a restraint stress was loaded. Fecal pellets were retrieved 2 hours after the beginning of the restraint stress loading, and the number of feces was counted. In addition, as for normal group, rats were left in their individual cages without any after administration of vehicle, and the number of feces for 2 hours was counted. Experiment was carried out according to Test Example 2, wherein melatonin (10 and 30 mg/kg) instead of compound A was administered orally.

[2] = tested on: abdominal symptoms of irritable bowel syndrome; conditions: female patients suffering from irritable bowel syndrome; cited from earlier work
[3] = tested on: partial restraint stress-induced defecation; conditions: experimental model for irritable bowel syndrome; cited from earlier work
[4] = tested on: viscerosensory response; assay: Viscerosensory response test: abdominal oblique muscle contractions under colonic distension stimulus after 1% acetic acid instillation; type: in vivo; conditions: male SD rats, oral 0.3, 3 and 30 mg/kg, 30 minutes before second colonic distension stimulus; FIG. 1
Procedure: For the experiment, 7 to 8 week-old male SD rats (CREA Japan, Inc.) were used. Under ether anesthesia, the rats were sutured with a force transducer (F12-IS-SL, Star Medical Inc.) on the abdominal oblique muscle, and used for the experiment after waiting at least one day or more postoperatively for recovery of the animals. After fasting for 18 hours, 1% acetic acid was instilled into the colon to produce a hypersensitive condition. One hour after the instillation of acetic acid, a balloon was inserted into the colon, fixed, and colonic distension stimulus was loaded for 10 minutes by inflating the balloon. The colonic distension stimulus was loaded two times before and after administration of compound A, and the observed contraction number of the abdominal oblique muscle was counted. The result was expressed as inhibition percent. Determination of the abdominal muscle contraction was conducted with the naked eye and waveform of force transducer. Compound A was suspended in a 0.5% methylcellulose, and administered orally with a volume of 4 mL/kg 30 minutes before the second colonic distension stimulus (0.3, 3 and 30 mg/kg).

[5] = tested on: normal defecation; assay: Normal defecation test; type: in vivo; conditions: male Wistar rats, oral 30 mg/kg; FIG. 3
Procedure: Further, a study on normal defecation was also conducted. Until the day before the experiment, two rats were kept in a cage and accustomed to the measuring condition. On the day of experiment, compound A or vehicle (control group, 0.5% methylcellulose) was administered orally with a dose of 4 ml/kg, and after 15 minutes, the measurement of defecation was commenced. The number of feces was counted two hours after the initiation of measurement, and the result was expressed by the number of feces per two rats.

[6] = tested on: melatonin receptor MT1/MT2; conditions: disclosed in U.S. Pat. No. 6,034,239; cited from earlier work

Row | SMILES | inhibition of restraint stress-induced defecation (number of feces for 2 hours) ([1]; oral 10 and 30 mg/kg, FIG. 4) | improvement of abdominal symptoms (abdominal pain, abdominal bloating, sense of urgency for defecation) [2] | inhibitory action on partial restraint stress-induced defecation [3] | inhibition of viscerosensory response (contraction number of abdominal oblique muscle, inhibition percent) [4] | inhibition of restraint stress-induced defecation (number of feces for 2 hours) ([1]; oral 30 mg/kg, 15 minutes before restraint stress, FIG. 2) | inhibition of normal defecation (number of feces per two rats, 2 hours) [5] | melatonin receptor MT1/MT2 agonistic action [6]
1 | COc1ccc2[nH]cc(CCNC(C)=O)c2c1 [melatonin] | did not inhibit | improves significantly | shows an inhibitory action | – | – | – | –
2 | CCC(=O)NCC[C@@H]1CCc2ccc3c(c21)CCO3 [compound A, (S)—N-[2-(1,6,7,8-tetrahydro-2H-indeno[5,4-b]furan-8-yl)ethyl]propionamide] | – | – | – | dose-dependent significant inhibition action | inhibited significantly | not inhibited | has a melatonin receptor MT1/MT2 agonistic action

Reference: US8183285B2, “Therapeutic agent for irritable bowel syndrome and methods thereof” (Takeda Pharmaceutical Company Limited, priority 2006, dated 2012)
